In brackets after ≈: the same amount, converted by molar mass. Where two headings read alike, the source gives them in different places.
Columns and labels:
NF-κB = assay: High throughput assay for NF-κB reporter activity (luciferase, stably transfected SH-SY5Y cells); type: cell-based, human; conditions: for maximal fold induction: 24 h, read-out: Emax
Experimental: SH-SY5Y human neuroblastoma cell line was obtained from the American Tissue Culture collection (ATCC). A commercially available expression vector containing the NF-kB promoter enhancer region driving the firefly luciferase gene expression and a second plasmid containing the gene conferring resistance to blasticidin were used in a dual transfection approach to obtain a stable cell line. SH-SY5Y cells stably transfected with pNF-κB-luc/pEF6 were plated at 8,000 per well in a volume of 40 μl DMEM in either Corning white opaque, 384-well plates (Cat. No. 3570, Corning, Inc., Corning, N.Y.) or Corning black clear bottom, 384-well plates (Cat. No. 3712, Corning, Inc., Corning, N.Y.) and treated with test compounds for 24 hr at 37° C. Luciferase activity was measured as a reporter of NF-kB activation using the Bright-Glo Luciferase assay kit (Cat. No. E2620, Promega, Madison, Wis.) according to the manufacturer's instructions. Cell viability was measured using the CellTiter-Glo Luminescent Cell Viability assay kit (Cat. No. G7572, Promega, Madison, Wis.) according to the manufacturer's instructions. Briefly, cells were equilibrated at room temperature for 30 min prior to the addition of Bright-Glo to the white opaque plates or CellTiter-Glo to the black clear bottom plates. A volume of assay buffer equal to the volume of cell media was added to each well and incubated for five min to allow complete cell lysis. All procedures were performed in the dark. Luminescence was measured by the Synergy4 Multi-detection microplate reader (BioTek, Winooski, Vt.) within 15 min of lysis.

SOD2 [1] = assay: SOD2 mRNA expression by quantitative RT-PCR in SH-SY5Y neuroblastoma cells; type: cell-based; conditions: human SH-SY5Y, 1 μM, 6 h (FIG. 1A)
SOD2 [2] = assay: SOD2 mRNA expression by quantitative RT-PCR in NSC-34 neuroblastoma cells; type: cell-based; conditions: mouse NSC-34, 1 μM, 24 h (FIG. 1B)
SOD2 [3] = assay: SOD2 protein expression and SOD activity in primary rat cortical cultures; type: cell-based; conditions: for SOD2 protein expression: primary rat cortical cultures (FIG. 1C); for SOD activity: primary rat cortical cultures (FIG. 1D)
Source text: N=3-6/group, mean+/−SEM, *p<0.05, **p<0.01, 2-way ANOVA, post-hoc t-test.

SOD2 [4] = assay: SOD2 mRNA expression in vitro (FIG. 5); type: cell-based; conditions: FIG. 1A-D
Source text: While a number of new compounds derived from Ataluren and compound no. […] 1 and no. 2. […] Whether these and other compounds are capable of inducing SOD2 mRNA and protein activity in vitro and in vivo, in addition to their ability to protect neurons from hydrogen peroxide or glutamate-induced cell death (as in Carri et al. (2015) Frontiers in cellular neuroscience 9:41) and dysfunction/cell death in the SOD1 G93A transgenic mouse model will also be evaluated.

inhibitory κB = assay: Inhibitory κB expression levels; type: cell-based
[5] = test system: glutamate-induced toxicity in primary cultures; assay: Neuroprotection in vitro; type: cell-based
[6] = test system: SOD1 G93A transgenic mouse; assay: Efficacy in the SOD1 G93A transgenic mouse model of ALS; type: in vivo; conditions: for progression to a score of 4: 25 mg/kg I.P. daily from day 96, 4-point severity score; for survival: SOD1 G93A males, 25 mg/kg I.P. daily from day 96
Experimental: Briefly, Congenic SOD1-G93A mice were dosed with up to 50 mg/kg of both compounds (IP) to evaluate any toxicity issues prior to initiating the efficacy study. Also, mice administered 20 mg of each compound had high plasma and brain levels at 30 minutes. Next, individually genotyped SOD1-G93A mice (Prize4life-Jackson Labs) were treated with each compound (25 mg/kg, IP) at disease onset (day 96). The treatment extended survival, reduced weight loss and improved the neurologic symptoms. […] Data document a 66% and an 81% lifespan extension for the compounds, respectively, at 50% survival in male mice. […] The average weight within the groups before the treatment was similar.
While compounds which increase SOD2 expression and activity have potential utility in a number of neurodegenerative diseases involving ROS overproduction, it was decided to test these two compounds in a mouse model of ALS for a variety of reasons, including the evidence for oxidative stress in ALS (described above), the ability of these compounds to induce SOD2 in a motor neuron-like mouse cell line (NSC-34; FIG. 1B), and the availability of a mouse model with dysfunction in SOD1 (human SOD1 G93A transgenic mouse; Jackson Laboratory). The pilot experiment involved treating six wildtype and six SOD1 G93A transgenic males on the C57BL/6 background with 25 mg/kg compound no. 1 and compound no. 2 I.P. daily, beginning around disease onset (day 96; FIG. 2A and FIG. 2B). Mouse survival and behavioral phenotype were observed based on guidelines from “Working with ALS mice: JAX handbook,” using a 4-point severity score (FIG. 2C).
Referring to FIG. 2A and FIG. 2B, SOD1 G93A mice received daily IP injections of saline (control) or compounds (25 mg/kg) starting on day 96.

[7] = Plasma and brain levels in SOD1 G93A mice; type: in vivo, mouse; conditions: 50 mg/kg I.P., within 30 minutes
Experimental: Before the studies above were initiated, congenic SOD1 G93A mice were dosed with 50 mg/kg of compound no. 1 and compound no. 2 via I.P. injection to rule out any toxicity issues prior to initiating the efficacy study (FIG. 2A-C).

[8] = Bioavailability / PK study (IV and PO); type: in vivo, mouse; conditions: for oral bioavailability: I.V./P.O., 1 and 5 mg/kg; for half-life: read-out: plasma half-life (t1/2)
Experimental: The experiments will involve the administration of compounds to 5-6 week old CD1 male mice. Mice are dosed by either a 1 mg/kg IV bolus or 5 mg/kg oral gavage. Blood samples are collected by cardiac puncture at 0, 0.25, 0.5, 1, 2, 4, 6, 8, 12, and 24 hrs. There will be three mice per time point. Plasma concentration over time will be determined by LC/MS from which the standard PK parameters of clearance, volume of distribution, t1/2 and % F can be derived using WinNoLin software (Pharsight Inc.). This will require a total of 60 mice per compound. Plasma will be analyzed by reverse phase chromatography with MS/MS detection operating in the positive ion mode using multiple reaction monitoring using an internal standard and Applied Biosystems Analyst 1.4 software. Peak time (when maximum plasma drug concentration occurs), peak drug level [approximate maximum concentrations of drug in plasma (Cmax)] and tin for drug elimination will be estimated for each tested compound. Bioavailability (F) will be calculated from the ratio of AUCPO/AUCIV and expressed as a percentage. To determine levels in brain, six additional mice will be dosed with 1 mg/kg I.V. and sacrificed at 0.25 and 1 hr. Brain and spinal cord samples will be collected at these two time points, quick frozen in an ice box and kept at −75±15° C. All samples will be weighed and homogenized with phosphate buffered saline (PBS) by brain weight (g) to PBS volume (mL) ratio 1:3 before analysis. The actual concentration is the detected value multiplied by the dilution factor.

Solubility = type: physicochemical; conditions: buffer, pH 7.4, aqueous buffer, kinetic from dmso stock
Source text: (§1) A standard panel of in vitro ADME assays will be utilized to assess drug-like properties of compounds and to inform subsequent in vivo PK studies. These assays include: (a) Permeability: MDCK (Madin Darby Canine Kidney) cells transfected with the MDR1 gene encoding for the multi-drug resistant transporter (Pgp) will be utilized to determine a compound's ability to permeate the membrane in apical to basolateral (A-B) and basolateral to apical (B-A) directions. The derived apparent permeability coefficient (Papp) provides an estimate of passive permeability; a ratio of Papp in the B-A/A-B direction gives an estimate of transporter efflux; (b) Solubility: Kinetic solubility is an important parameter for accurate determinations of the dose response. This is estimated using the shake flask method with a μSol Explorer (PION, Billerica, Mass.) at pH 7.4. Compounds are added as a DMSO solution to buffer. The average of two determinations at pH 7.4 will be reported. Solubility at pH 7.4 is relevant for in vitro assays; (c) Metabolic Stability: The potential for a high metabolic clearance compound is estimated using a liver microsome assay. […] The disappearance of the parent molecule is measured by liquid chromatography/mass spectroscopy (LC/MS) detection. […]

MDR/MDCK cells = assay: Permeability in MDR/MDCK cells; type: in vitro ADME, Canine
Source text: as §1

[9] = Homo sapiens, SH-SY5Y, read-out: EC50
[10] = Homo sapiens, SH-SY5Y, Table 2, no unit printed (text: fold)
[11] = Homo sapiens, SH-SY5Y, Table 2, unit not given (μM for nos. 3 and 20), read-out: EC50
[12] = Table 2, unit not given (μM for nos. 3 and 20)

O=C(O)c1cccc(-c2noc(-c3ccccc3F)n2)c1 [Ataluren, reference compound]
induction (NF-κB): 9-10 fold | EC50 (NF-κB; [9]): 1.5 µM

O=C(/C=C\Nc1ccccc1Br)c1ccc2c(c1)OCO2 [Compound 1, (Z)-1-(Benzo[d][1,3]dioxol-5-yl)-3-((2-bromophenyl)amino)Prop-2-en-1-one]
maximal fold induction (NF-κB; [10]): 26 | EC50 (NF-κB; [11]): 0.5 µM | SOD2 mRNA expression (SOD2 [1]): induce SOD2 | SOD2 mRNA expression (SOD2 [2]): induce SOD2 | SOD2 protein expression (SOD2 [3]): induce SOD2 | SOD activity (SOD2 [3]): increase | SOD2 mRNA expression increase (SOD2 [4]): 2 fold | inhibitory κB expression levels (inhibitory κB): do not effect inhibitory κB expression levels | neuroprotection in vitro [5]: neuroprotective in vitro | progression to a score of 4 [6]: delayed | survival [6]: significantly prolonged | plasma and brain levels [7]: substantial plasma and brain levels | oral bioavailability [8]: lack of oral bioavailability | half-life ([8]; male, CD1, mouse, plasma): < 5 min

Cc1cccnc1Nc1nc(-c2ccccn2)cs1 [Compound 2, N-(3-Methylpyridin-2-yl)-4-(pyridin-2-yl)thiazol-2-amine]
maximal fold induction (NF-κB; [10]): 40 | EC50 (NF-κB; [11]): 0.21 µM | SOD2 mRNA expression (SOD2 [1]): induce SOD2 | SOD2 mRNA expression (SOD2 [2]): induce SOD2 | SOD2 protein expression (SOD2 [3]): induce SOD2 | SOD activity (SOD2 [3]): increase | SOD2 mRNA expression increase (SOD2 [4]): 2 fold | inhibitory κB expression levels (inhibitory κB): do not effect inhibitory κB expression levels | neuroprotection in vitro [5]: neuroprotective in vitro | progression to a score of 4 [6]: delayed | survival [6]: significantly prolonged | plasma and brain levels [7]: substantial plasma and brain levels | oral bioavailability [8]: lack of oral bioavailability | half-life ([8]; male, CD1, mouse, plasma): < 5 min

O=C(O)c1cccc(-c2csc(Nc3ccccc3F)n2)c1 [Compound 3, 3-(2-((2-Fluorophenyl)amino)thiazol-4-yl)benzoic acid]
EC50 (NF-κB; [11]): 0.84 µM | EC50 (NF-κB; [9]): ~1 µM | Cmax ([8]; male, CD1, mouse, plasma, oral, 5 mg/kg dose): 100 ng/mL | bioavailability ([8]; male, CD1, mouse, plasma, 1 mg/Kg IV and 5 mg/Kg po, read-out: orally bioavailable): 26% | solubility (Solubility): 80 µM (≈ 25.1 µg/mL) | efflux (MDR/MDCK cells): no efflux was observed | permeability (MDR/MDCK cells): highly permeable

Fc1ccccc1Nc1nc(-c2cccc(C(F)(F)F)c2)cs1 [Compound 16]
maximal fold induction (NF-κB; [10]): 16 | EC50 (NF-κB; [11]): 9.35 µM

Fc1ccccc1Nc1nc(-c2cccc(Cl)c2)cs1 [Compound 17]
maximal fold induction (NF-κB; [10]): 14.5 | EC50 (NF-κB; [11]): > 10 µM

Fc1ccc(-c2csc(Nc3ccccc3F)n2)cc1F [Compound 19]
maximal fold induction (NF-κB; [10]): 18.5 | EC50 (NF-κB; [11]): > 10 µM

CC(C)(O)c1cccc(-c2csc(Nc3ccccc3F)n2)c1 [Compound 21]
maximal fold induction (NF-κB; [10]): 18.9 | EC50 (NF-κB; [11]): > 10 µM

Fc1ccccc1Nc1nc(-c2ccc(OCC(F)(F)F)cc2)cs1 [Compound 24]
EC50 (NF-κB; [11]): > 10 µM

N#Cc1cccc(-c2csc(Nc3ccccc3F)n2)c1 [Compound 25]
EC50 (NF-κB; [11]): > 10 µM

Fc1ccccc1Nc1nc(-c2ccc(C(F)(F)F)cc2)cs1 [Compound 26]
EC50 (NF-κB; [11]): > 10 µM

N#Cc1ccc(-c2csc(Nc3ccccc3F)n2)cc1 [Compound 27]
EC50 (NF-κB; [11]): > 10 µM

O=C(NC1CC1)c1cccc(-c2csc(Nc3ccccc3F)n2)c1 [Compound 28]
EC50 (NF-κB; [12]): Inactive

Fc1ccccc1Nc1nc(-c2ccc(Cl)c(Cl)c2)cs1 [Compound 29]
EC50 (NF-κB; [11]): > 10 µM

NC(=O)c1cccc(-c2csc(Nc3ccccc3F)n2)c1 [Compound 30]
EC50 (NF-κB; [12]): Inactive

Cc1noc(-c2cccc(-c3csc(Nc4ccccc4F)n3)c2)n1 [Compound 31]
EC50 (NF-κB; [12]): Inactive

Fc1ccc(-c2csc(Nc3ccccc3F)n2)cc1 [Compound 43]
EC50 (NF-κB; [12]): Inactive

N-(4-(2-((2-Fluorophenyl)amino)thiazol-4-yl)benzyl)acetamide [Compound 20]
Emax (NF-κB): > 20 fold | Emax (NF-κB; Table 2, no unit printed (text: fold)): 27.58 | EC50 (NF-κB; Table 2, unit not given (μM for nos. 3 and 20), read-out: EC50): 3.75 µM | EC50 (NF-κB; read-out: EC50): 4 µM

Reference: patent US11718593B2, “2,5-aryl-thiazole analogs for the treatment of neurodegenerative diseases” (Southern Research Institute, priority 2018, dated 2023)
